By inhibition is commonly meant the relative decrease from the control value, in per cent. The term IC50 denotes the midpoint of a concentration-inhibition curve. Read a high IC50 as lower potency.

Bounds are passed on as bounds.

This is an account of results in US9828375B2, “4-position substituted pyrazolopyrimidine derivative, and use thereof in drug preparation” (Guangxi Wuzhou Pharmaceuticals (Group) Co., Ltd., priority 2012, dated 2017).

The target in assay [1] is c-KIT (Homo sapiens, UniProt P10721). Kind of assay: Kinase inhibition activity test, isotope labeling: c-KIT. Format: biochemical. As to conditions: test compound at a concentration of 10 μM. As for the experimental part: The purpose of this experiment was to test the inhibitory activity of the compound of the invention for in vitro kinase with the isotope labeling method (the γ phosphate group on ATP was labeled). In this experiment, the in vitro activity inhibition of such kinases as FLT3, VEGFR2, FLT1, FLT4, RET, c-RAF, B-RAF, c-KIT, PDGFα, PDGFβ, FGFR2, FGFR1, EphA2, EphB2, SRC, ABL, ALK and Met was tested respectively. Staurosporine was reference molecule (or referred to as positive control). The kinase inhibition activity of the test compound was expressed by half-inhibitory concentration (IC50) or the kinase activity inhibition rate of the test compound at a concentration of 10 μM. The IC50 value could be obtained by calculating the kinase activity inhibition rate of the test compound at different concentrations.
Sequence of c-KIT (P10721 26-976): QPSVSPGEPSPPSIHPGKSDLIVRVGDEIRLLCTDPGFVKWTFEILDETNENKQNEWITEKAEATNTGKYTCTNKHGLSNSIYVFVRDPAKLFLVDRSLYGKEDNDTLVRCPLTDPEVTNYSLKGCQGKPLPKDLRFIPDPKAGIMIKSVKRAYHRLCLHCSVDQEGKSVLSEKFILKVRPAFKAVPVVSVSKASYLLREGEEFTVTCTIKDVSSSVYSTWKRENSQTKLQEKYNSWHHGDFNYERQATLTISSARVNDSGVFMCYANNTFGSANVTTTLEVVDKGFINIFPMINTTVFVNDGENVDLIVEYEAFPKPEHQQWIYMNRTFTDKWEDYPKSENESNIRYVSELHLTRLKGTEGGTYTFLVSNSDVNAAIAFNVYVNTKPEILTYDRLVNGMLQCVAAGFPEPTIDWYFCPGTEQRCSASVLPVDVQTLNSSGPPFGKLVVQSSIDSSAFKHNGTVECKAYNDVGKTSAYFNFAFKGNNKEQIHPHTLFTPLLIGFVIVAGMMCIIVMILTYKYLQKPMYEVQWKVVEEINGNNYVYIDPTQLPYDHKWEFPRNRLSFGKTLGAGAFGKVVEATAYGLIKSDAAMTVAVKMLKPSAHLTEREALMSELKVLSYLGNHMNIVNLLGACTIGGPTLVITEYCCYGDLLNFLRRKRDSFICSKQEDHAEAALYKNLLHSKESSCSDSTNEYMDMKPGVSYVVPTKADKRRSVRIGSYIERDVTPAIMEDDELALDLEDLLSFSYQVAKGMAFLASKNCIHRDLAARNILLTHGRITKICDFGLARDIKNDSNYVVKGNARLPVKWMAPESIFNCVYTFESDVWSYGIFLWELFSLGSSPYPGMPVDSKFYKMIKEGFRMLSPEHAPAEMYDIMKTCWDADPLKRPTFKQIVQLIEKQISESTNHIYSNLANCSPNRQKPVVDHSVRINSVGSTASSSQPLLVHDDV
20 mM 3-(N-morpholinyl)propanesulfonic acid (MOPS); 1 mM ethylenediaminetetraacetic acid (EDTA), 0.01% Brij 35 (Brij-35), 5% glycerol, 0.1% mercaptoethanol, 1 mg/mL bovine serum albumin (BSA), 10 mM manganous dichloride solution (MnCl2), 0.1 mg/mL glutamic acid/tyrosine (4:1) polypeptide (poly(Glu, Tyr)4:1), 50 μM EAIYAAPFAKKK (substrate of FLT3), 0.33 mg/mL myelin basic protein (substrate of VEGFR2), 250 μM KKKSPGEYVNIEFG (substrate of FLT1(h)), 500 μM GGEEEEYFELVKKKK (substrate of FLT4(h)), 250 μM KKKSPGEYVNIEFG (substrate of RET), 0.66 mg/mL myelin basic protein (substrate of C-RAF), 250 μM GGMEDIYFEFMGGKKK (substrate of c-Kit), 250 μM GGMEDIYFEFMGGKKK (substrate of PDGFα), 250 μM KKKSPGEYVNIEFG (substrate of FGFR1), […] GGEEEEYFELVKKKK (substrate of SRC), 50 μM EAIYAAPFAKKK (substrate of ABL), 250 μM KKKSPGEYVNIEFG (substrate of ALK), 250 μM KKKSPGEYVNIEFG (substrate of Met(h)), 10 mM magnesium acetate and γ-^33 P-ATP solution, stop buffer (3% phosphate buffer), washing buffer (75 mM phosphate solution), methanol, Filtermat A membrane, FLT3, VEGFR2, FLT3, VEGFR2, FLT1, FLT4, RET, c-RAF, B-RAF, c-KIT, PDGFRα, PDGFRβ, FGFR2, FGFR1, EphA2, EphB2, SRC, ABL, ALK, Met and other kinases, and the test compounds.
Buffers (8 mM MOPS with pH value of 7.0, 0.2 mM EDTA and 10 mM MnCl2), (5-10 mU) kinases to be tested (FLT3, VEGFR2, FLT1, FLT4, RET, c-RAF, B-RAF, c-KIT, PDGFRα, PDGFRβ, FGFR2, FGFR1, EphA2, EphB2, SRC, ABL, ALK and Met), substrates of kinases to be tested (refer to experimental materials), 10 mM magnesium acetate and γ-^33 P-ATP solution, and test compounds at different concentrations were added to a reaction tube orderly. […] Reaction was terminated with 5 μL 3% phosphate buffer finally, and 10 μL reaction solution was titrated to the Filtermat A membrane; solution was washed for 3 times with 75 mM phosphate solution with each time lasting 5 minutes, and then washed once with methanol. Finally, the Filtermat A membrane was dried, and scintillation counting was performed on the membrane, with scintillation count reflecting the phosphorylation degree of the substrates, so that the activity inhibition of kinase could be characterized.

The subject of assay [2] is human malignant melanoma cell line A375. The assay can be described thus: In vitro tumor cell proliferation inhibition (MTT): A375. Format: cell-based. In short, it runs like this: (§1)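 Readout was MTT colorimetry at 570 nm after DMSO solubilisation, following 72 h compound treatment at graded doses in 0.1% DMSO. Wells held 1-2×10^4 cells/mL plated the day before; triplicates, experiment repeated at least 3 times, results as IC50 or inhibition rate.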

Assay [3] relates to human malignant melanoma cell line A875. Kind of assay: In vitro tumor cell proliferation inhibition (MTT): A875. Format: cell-based. In short, it runs like this: as §1
Assay [4] deals with human leukemia cell line Jurkat. Kind of assay: In vitro tumor cell proliferation inhibition (MTT): Jurkat. Format: cell-based. As to conditions: 72 hours. In short, it runs like this:
as §1

Assay [5] relates to human leukemia cell line K562. The assay can be described thus: In vitro tumor cell proliferation inhibition (MTT): K562. Format: cell-based. In short, it runs like this: as §1
Assay [6] concerns human cervical carcinoma cell line HELA. Kind of assay: In vitro tumor cell proliferation inhibition (MTT): HELA. As to conditions: 72 hours. Format: cell-based. In short, it runs like this:
as §1

`COc1cccc(NC(=O)Nc2ccc(Nc3ncnc4[nH]ncc34)cc2)c1` [4b-3]: in assay [1] (read-out: Activity inhibition rate c-Kit (h)), the inhibition at 10 µM was greater than 30%. For the same molecule, the IC50 in assay [2] (Homo sapiens, A-375, 72 hours) was less than 50 µM; in assay [3] (Homo sapiens, A875, 72 hours) it was less than 50 µM; in assay [4] (Homo sapiens, Jurkat) it was less than 50 µM; in assay [5] (Homo sapiens, K562, 72 hours) it was less than 50 µM; in assay [6] (Homo sapiens, HeLa), less than 50 µM.

As to `C[C@H](NC(=O)Nc1ccc(Nc2ncnc3[nH]ncc23)cc1)c1ccccc1` [4b-4], the “Activity inhibition rate c-Kit (h)” value in assay [1] is greater than 30%. For the same molecule, the IC50 in assay [2] (72 hours), in assay [3] (72 hours), in assay [4], in assay [5] (72 hours) and in assay [6] was less than 50 µM throughout.

Take `CC(C)(C)c1cc(NC(=O)Nc2ccc(Sc3ncnc4[nH]ncc34)cc2)no1` [4c-3, 1-(4-(1H-pyrazolopyrimidine-4-sulfydryl)phenyl)-3-(5-tert-butylisoxazol-3-yl)urea]: in assay [1], the “Activity inhibition rate c-Kit (h)” value is greater than 90%. For the same molecule, the IC50 in assay [2] (72 hours), in assay [3] (72 hours), in assay [4], in assay [5] (72 hours) and in assay [6] was less than 50 µM throughout.
